Patent US8299091B2, “Aminoisoquinoline thrombin inhibitor with improved bioavailability” (MSD Oss B.V., priority 2006, dated 2012)
Where a name gives a salt, the structure may show the parent alone. Read-outs that look alike come from different tables or passages of the source.

Experiments:
[1] = target: T1, human α-thrombin (Homo sapiens, UniProt P00734); test: Assay of thrombin activity (chromogenic substrate S-2238); format: biochemical; conditions: for IC50: 10 min pre-incubation at 37° C, substrate S-2238; for Ki: Hanes-Woolf analysis, S-2238 concentration varied
T1 construct: human α-thrombin
Method: Thrombin inhibitory activity was assessed by pre-incubating the test compound at a variety of concentrations with human α-thrombin at 37° C. After 10 min, the chromogenic substrate H-D-Phe-Pipecolinyl-Arg-ρ-nitroanilide (S-2238) was added to the mixture and the change in absorbance measured over the following 8 min.

[2] = Determination of bioavailability / pharmacokinetics in rats; format: in vivo; conditions: male, Wistar Ola, plasma, rat, saline; for half-life: read-out: T½ (converted); for Vd: read-out: Vss
Description: Determination of Bioavailability of Compounds 1A, 2A and 3A in Rats
Male Wistar Ola rats (˜250 g). Food and water were available ad libitum throughout the studies.
For intravenous pharmacokinetic studies, catheters (Portex polythene—ID 0.58 mm, OD 0.96 mm with a tip made from SF Medical silicone tubing, SFM1-1350) were inserted into the right jugular vein under isoflurane anaesthesia. The tubing was exteriorised at the back of the neck, filled with heparinised saline (100 Um/ml) and stoppered. Animals were allowed a minimum of 48 h recovery before dosing.
Compounds 1A, 2A and 3A were administered orally (PO). Compounds 1B, 2B and 3B were administered intravenously (IV). Serial blood samples (for plasma) were taken from a lateral vein at points from 3 min to 24 hrs (terminal sample by cardiac puncture) according to a matrix design protocol (3 samples per time point). Plasma samples were stored at −20° C. until analysis.
Plasma samples were analyzed for the pertinent free acid thrombin derivatives 1B, 2B and 3B using an LC-MS method. Cmax (maximum plasma concentrations) and AUC values were determined from the mean plasma concentration—time profiles.
Noncompartmental pharmacokinetic analysis was performed using WinNonlin Professional 3.1 and 4.1.

[3] = as above; format: in vivo; conditions: male, Wistar Ola, plasma, rat
[4] = IV 5 mg/kg, mean of two studies
[5] = PO 10 mg/kg of the free acid itself, saline

| SMILES | IC50 [1] | Ki [1] | AUC ([2]; IV 2 mg/kg) | clearance ([2]; IV 2 mg/kg) | half-life ([2]; IV 2 mg/kg) | Vd ([2]; IV 2 mg/kg) | further results |
| --- | --- | --- | --- | --- | --- | --- | --- |
| Cl.Nc1nccc2cc(CNC(=O)[C@@H]3CCCN3C(=O)[C@H](NCC(=O)O)C(c3ccccc3)c3ccccc3)ccc12 [Compound 1B, N-(carboxymethyl)-β-phenyl-D-phenylalanyl-N-[(1-amino-6-isoquinolyl)methyl]-L-prolinamide hydrochloride] | 0.0126 µM | 0.0009 µM |  |  |  |  | AUC [2, 4]: 4.86 µg·h/mL; clearance [2, 4]: 1.02 L/h/kg; half-life [2, 4]: 19.2 min; Vd [2, 4]: 0.48 L/kg; bioavailability ([3]; PO 10 mg/kg of the free acid itself vs IV): 1.3%; AUC [3, 5]: 0.119 µg·h/mL; Cmax [3, 5]: 0.035 µg/mL; Tmax [3, 5]: 72 min |
| Nc1nccc2cc(CNC(=O)[C@@H]3CCCN3C(=O)[C@@H](Cc3ccccc3)NCC(=O)O)ccc12 [Compound 2B, N-(carboxymethyl)-D-phenylalanyl-N-[(1-amino-6-isoquinolyl)methyl]-L-prolinamide trifluoroacetate] |  |  | 0.659 µg·h/mL | 3.24 L/h/kg | 36.6 min | 2.4 L/kg |  |
| CCCOC(=O)CN[C@@H](C(=O)N1CCC[C@H]1C(=O)NCc1ccc2c(N)nccc2c1)C(c1ccccc1)c1ccccc1 [Compound 1A, N-(2-oxo-2-propoxyethyl)-β-phenyl-D-phenylalanyl-N-[(1-amino-6-isoquinolinyl)methyl]-L-prolinamide] | 0.013 µM | 0.001 µM |  |  |  |  |  |
| CCCOC(=O)CN[C@H](Cc1ccccc1)C(=O)N1CCC[C@H]1C(=O)NCc1ccc2c(N)nccc2c1 [Compound 2A, N-(2-propoxy-2-oxoethyl)-D-phenylalanyl-N-[(1-amino-6-isoquinolyl)methyl]-L-prolinamide hydrochloride] | 0.573 µM | 0.0345 µM |  |  |  |  |  |

Now from value to compound, other results behind:

| IC50 [1] | Ki [1] | AUC ([2]; IV 2 mg/kg) | clearance ([2]; IV 2 mg/kg) | half-life ([2]; IV 2 mg/kg) | Vd ([2]; IV 2 mg/kg) | SMILES | further results |
| --- | --- | --- | --- | --- | --- | --- | --- |
| 0.197 µM | 0.0018 µM |  |  |  |  | CCCOC(=O)CN[C@H](Cc1ccc(OC)cc1)C(=O)N1CCC[C@H]1C(=O)NCc1ccc2c(N)nccc2c1 [Compound 3A, N-(2-propoxy-2-oxoethyl)-O-methyl-D-tyrosinyl-N-[(1-amino-6-isoquinolyl)methyl]-L-prolinamide hydrochloride] |  |
| 0.358 µM | 0.0054 µM | 1.01 µg·h/mL | 2.04 L/h/kg | 9.6 min | 0.46 L/kg | COc1ccc(C[C@@H](NCC(=O)O)C(=O)N2CCC[C@H]2C(=O)NCc2ccc3c(N)nccc3c2)cc1 [Compound 3B, N-(carboxymethyl)-O-methyl-D-tyrosinyl-N-[(1-amino-6-isoquinolyl)methyl]-L-prolinamide trifluoroacetate] |  |
